These results are taken from patent US7078585B1, “Bacterial cell component-unresponsive model mouse” (Japan Science and Technology Agency, priority 1999, dated 2006).

“Also recorded” adds a separate entry of the source. Read-outs that look alike come from different tables or passages of the source.

Test [1] concerns thymocytes. In words: Thymocyte (T cell) proliferation with IL-1 costimulation ([3H]thymidine). It is filed as cell-based, mouse. Particulars: 100 U/ml with PHA, ConA or IL-2, 72 hours. The text has this:
Proliferation of T cells were examined by measuring [^3H] amount of [^3H] thymidine taken into the cells.

Test [2] relates to mice. In words: IL-1-induced acute phase protein mRNA in liver and serum TNF-α/IL-6 after intravenous injection. In kind it is in vivo, mouse. Particulars: 1 μg intravenously, 2 hours. Here is the method: MyD88 knockout mice of the present invention were intravenously injected with 1 μg of […] (Genzyme), and 2 hours later liver and sera were taken. Total RNA was extracted from the liver using Trizol reagent (GIBCO). This RNA (10 μg) was electrophoresed and transferred to a nylon membrane, then Northern blot analysis was conducted with ^32P-labelled cDNA for acute phase proteins such as serum amyloid A (SAA-I), serum amyloid P(SAP), and haptoglobin (HP).
Because IL-1 induces production of […], increase of TNF-α and IL-6 concentrations in serum taken from MyD88 knockout mice of the present invention and wild-type littermates by the above-stated method were measured by ELISA.

Test [3] has as its system peritoneal macrophages. In words: TNF-α production by stimulated peritoneal macrophages (ELISA). In kind it is cell-based, mouse. (ELISA stands for enzyme-linked immunosorbent assay.)
For test [4], the system named is peritoneal macrophages. The test is described as follows: IL-6 (ELISA) and NO2^− (Greiss method) production by peritoneal macrophages. It is filed as cell-based, mouse. Particulars: for production of IL-6: 24 hours; for production of NO2^−: in the presence of IFN-γ (30 unit/ml).
Protocol: Each of TLR2 knockout (TLR2−/−), TLR4 knockout (TLR4−/−) and wild-type (wild-type) mice were intraperitoneally injected with 2 ml of 4% thioglycollate medium (DIFCO). Three days later, peritoneal exudate cells were isolated from the peritoneal cavity of each mouse. These cells were cultured in RPMI1640 medium (GIBCO) supplemented with 10% fetal bovine serum (GIBCO) for 2 hours at 37° C. and washed with ice-cold Hank's buffered salt solution (HBSS; GIBCO) to remove nonadherent cells. Adherent cells were used as peritoneal macrophages for following experiments.
Synthetic lipid A, which was soluble in endotoxin-free water and containing 0.025% of triethylamine, was used as said synthetic lipid A. After the culture, production amounts of IL-6 (FIG. 17A), TNF-α (FIG. 17B) and NO2^− (FIG. 17C) in culture supernatants were measured. Production amount of IL-6 was measured by enzyme-linked immunosorbent assay (ELISA; ENDOGEN), and that of TNF-α was measured by ELSIA, according to manufacturer (Genzyme)'s instructions, and that of NO2^31 was measured by the Greiss method using NO2/NO3 Assay Kit (Dojindo Laboratories).
The subject of test [5] is NF-κB. In words: NF-κB DNA binding activity (electrophoretic / gel mobility shift assay). In kind it is cell-based, mouse. Here is the method: Splenic T cells cultured in the presence of IL-12 and anti-CD3 antibody for 4 days were starved for 3 hours and then stimulated with IL-18. Nuclei extracted from the stimulated cells were analyzed by a gel mobility shift assay using a specific probe containing NF-κB binding site.
NF-κB activation in response to LPS or PGN was also investigated. Macrophages of various kinds of mouse were stimulated with said LPS or PGN, then nuclear extracts from the macrophages were purified and incubated with a probe specific to DNA binding site of NF-κB, and visualized by electrophoretic mobility shift assay as described previously (Immunity 9, 143–150, 1998). The results are shown in FIGS. 21C and D. Arrows in FIGS. 21C and D indicate the position of a complex comprised of NF-κB and the specific probe, and arrowheads indicate the position of specific probe only.
(§1) In order to examine whether a lipoprotein/lipopeptide activates intracellular signaling molecules with the results of example 16, peritoneal macrophages of the 4 kinds of mouse (1×10^6) were stimulated with 0.3 ng/ml of R-MALP-2 for 10 minutes, and in vitro kinase assay (Auto in FIG. 25A), Western blot analysis (WB in FIG. 25A), electrophoretic mobility shift assay (FIG. 25B) were conducted with anti-IRAK antibody as in example 12. In addition, in vitro kinase assay (Auto in FIG. 25C) and Western blot analysis (WB in FIG. 25C) with anti-JNK1 antibody were also conducted.

The test system of test [6] is JNK. The test is described as follows: JNK activation (in vitro kinase assay). In kind it is cell-based, mouse. The protocol:
In addition to induction of NF-κB activation, IL-1 is also known to activate c-Jun N-terminal kinase (JNK). To test whether IL-18 induces JNK activation, an in vitro kinase assay was carried out using GST-c-Jun-fusion protein as a […]. […] IL-18-induced NF-κB and JNK activation was impaired in MyD88-deficient mice.
as §1

Test [7] has as its system YAC-1 targeting cells. The test is described as follows: NK lytic activity against 51Cr-labelled YAC-1 target cells. It is filed as cell-based, mouse. The settings on record: 24 hours. The protocol: It has been well known that IL-18 enhances lytic activity of NK cells. Splenic […] from MyD88 knockout mice of the present invention and wild-type littermates were cultured in the presence or absence of 20 ng/ml of IL-18 (Hayashibara Biochemical Laboratories, Inc.) for 24 hours with ^51Cr-labelled mouse lymphoma cells (hereinafter “YAC-1”) targeting cells. 4 hours later, released ^51Cr in supernatants were counted by a gamma counter.

Test [8] has as its system splenic T cells. The test is described as follows: IFN-γ production by splenic cells / splenic T cells (ELISA). It is filed as cell-based, mouse. The settings on record: 20 ng/ml, 24 hours. The protocol: Further, splenic B cells of MyD88 knockout mice of the present invention and their wild-type littermates were stimulated by 20 ng/ml of IL-18 and cultured for 24 hours in vitro, then production of IFN-γ in culture supernatants was measured by ELISA.
Splenic T cells of MyD88 knockout mice of the present invention and their wild-type littermates, which were purified to 95% or over, were cultured on anti-CD3 antibody (20 μg/ml)(PharMingen)-coated plates in the presence of 2 ng/ml IL-12. 4 days after the onset of culture, cells were harvested and washed with Hanks' balanced salt solution. The washed cells (2×10^5) were stimulated and cultured again on anti-CD3 antibody (20 μg/ml)-coated 96-well plates for 24 hours with 20 ng/ml of IL-18 or 2 ng/ml of IL-12. Concentration of IFNγ in culture supernatants was determined by ELISA and compared.
MyD88 knockout mice of the present invention and their wild-type littermates were intraperitoneally injected with 500 μg of heat-killed Propionibacterium acnes (P. acnes). […] Concentration of IFN-γ in culture supernatants was determined by ELISA. […] 14 days after injection, T cells were purified from spleen, then cultured and stimulated for 24 hours, as described above, subsequently concentration of IFN-γ was measured.

In test [9] the test system is AP-1. The test is described as follows: AP-1-dependent reporter activity after IL-18 treatment. In kind it is cell-based. The settings on record: stimulation with IL-18. The protocol: Next, it was examined whether the dominant negative MyD88 mutant blocked IL-18-induced NF-κB activation as well. COS-7 cells were transiently transfected with MyD88 (amino acid 152–296) expression vector together with NF-κB-dependent luciferase reporter gene, and luciferase activity after IL-18 treatment was measured. Coexpression of MyD88 blocked IL-18-induced activation almost completely (see FIG. 7).
Because IL-18 activates AP-1-dependent gene information, whether MyD88 (amino acid 152–296) also acted as a dominant negative mutant of IL-18-induced AP-1 activation was investigated. Stimulation with IL-18-induced an approximately 3- to 4-fold increase in AP-1 activity, and this activation was blocked by coexpression of MyD88 (amino acid 152–296) (see FIG. 7).

Test [10] has as its system peritoneal macrophages. In words: I-A^b expression in peritoneal macrophages after intraperitoneal IFN-γ. The settings on record: 5000 U intraperitoneally, three days after injection. In kind it is in vivo, mouse. The text has this:
Each of wild-type, MyD88- and TLR4-deficient mice were intraperitoneally injected with 5000 U of IFN-γ (Genzyme) or PBS. Three days after injection, peritoneal macrophages were collected and stained by combining I-A^b molecule on the surface of the macrophage membranes and FITC-conjugated anti-mouse I-A^b antibody, then analyzed by fluorescence-activated cell sorter Calibur using CELLQuest software (see FIG. 9C).

The test system of test [11] is splenic B cells. In words: MHC class II (I-A^b) expression on splenic B cells (flow cytometry). It is filed as cell-based, mouse. The settings on record: 48 hours. The protocol:
The expression of major histocompatibility complex (MHC) class II (I-A^b molecule) on the surface of splenic B cells in response to Re-595LPS was examined by flow cytometry. Splenic B cells (1×10^6) from each of the wild-type, MyD88- and TLR4-deficient mice were cultured for 48 hours in the presence of various concentrations (0, 0.01, 0.1, 1, 10 or 100 μg/ml) of LPS. After the culture, the cells were collected and then stained by combining I-A^b molecule on the surface of the cells and FITC-labelled antibody which is constructed by combining phycoerythrin (PE; PharMingen)-conjugated anti-B220 antibody or biotinylated anti-mouse I-A^b antibody (PharMingen) and fluorescein […] (FITC; PharMingen)-conjugated streptavidin. The stained cells were analyzed on fluorescence-activated cell sorter Calibur (FACS Calibur) using CELLQuest software (Becton Dickinson).
Next, Splenic B cells (1×10^6) from each of the wild-type, MyD88- and TLR4-deficient mice were cultured for 48 hours in the presence or absence of 100 U/ml of IL-4, and then stimulated. Subsequently, the cells were stained by combining I-A^b molecule on the surface of the splenic B cells and PE-conjugated anti-B220 antibody or FITC-conjugated anti-mouse I-A^b antibody. The cell proliferation was measured on fluorescence-activated cell sorter Calibur using CELLQuest software (see FIG. 9B).
In addition, the expression of major histocompatibility complex (MHC) class II (I-A^b) on the surface of B cells in response to Re-595 LPS was examined by flow cytometry. Splenic B cells (1×10^5) of each of wild-type, TLR2 knockout (2−/−) and TLR4 knockout (4−/−) mice were isolated and cultured for 48 hours in 96-well plates with various concentrations (0, 10^1, 10^2, 10^3, 10^4 or 10^5 ng/ml) of LPS or 100 U/ml of IL-4. […] The stained cells were analyzed on fluorescence-activated cell sorter Calibur (FACS Calibur) using CELLQuest software (Becton Dickinson) (FIG. 18B).

[12] abbreviates: peritoneal macrophages of TLR2 knockout mice.
[13] abbreviates: peritoneal macrophages of wild-type mice.
[14] abbreviates: nuclear extracts of wild-type cells.

Turning to IL-1β: IL-1β (Genzyme), cytokine, the values for the proliferation of thymocytes entry in test [1] (MyD88 knockout mice) and in [1] (wild-type littermates) were “almost no enhanced proliferation” and “displayed enhanced proliferation”, respectively. The “IL-6 concentration in serum” value is “neither TNF-α nor IL-6 concentration increased” in test [2] (MyD88 knockout mice); “TNF-α and IL-6 concentrations increased” in [2] (wild-type mice). The “TNF-α concentration in serum” value in test [2] (MyD88 knockout mice) was “neither TNF-α nor IL-6 concentration increased”; in [2] (wild-type mice), “TNF-α and IL-6 concentrations increased”. The “increase of mRNA expression of acute phase proteins (SAA-I, SAP, HP) in liver” value in test [2] (MyD88 knockout mice) was “not observed in MyD88 knockout mice”; in test [2] (wild-type littermates), “increase of induction was observed in wild-type mice”.
In the case of lipid A, the “production of TNF-α” value in test [3] is “produced IL-6 and TNF-α”; in test [3] (peritoneal macrophages of TLR4-deficient mice, 24 hours) it was “produced neither IL-6 nor TNF-α”. In addition, the “production of IL-6” value in test [4] (setting [12]) was “produced IL-6 and TNF-α”; in test [4] (peritoneal macrophages of TLR4 knockout mice), “produced neither IL-6 nor TNF-α”; in test [4] (setting [13]), “produced IL-6 and TNF-α”. In addition, the “production of NO2^−” value in [4] (setting [12]) and in [4] (setting [13]) was “production of NO2^− was confirmed” each time.
As to TNF-α, the “NF-κB DNA binding activity / NF-κB activation” value in [5] (nuclear extracts of MyD88-deficient cells) and in [5] (setting [14]) was “almost the same levels of NF-κB DNA binding activity” in each case. The JNK activation result in test [6] (MyD88-deficient cells) was “normal activation of JNK was observed”.
Turning to “IL-18: IL-18 (Hayashibara Biochemical Laboratories, Inc.), cytokine”, in test [5] (setting [14]), the “NF-κB DNA binding activity / NF-κB activation” value is “detected in the nuclear extracts from wild-type cells”. Besides, the JNK activation result was “IL-18-induced JNK activation was not observed” in [6] (MyD88-deficient cells) and “induced JNK activation” in test [6] (Th1-developing cells of wild-type mice). Also, the “lytic activity to YAC-1 targeting cells” value in test [7] (splenic cells of MyD88 knockout mice) is listed as “not enhanced”; in test [7] (splenic cells of wild-type mice), “dramatically enhanced”. Also, the entries for the “production of IFN-γ” value in [8] (splenic cells / T cells of MyD88 knockout mice) and in [8] (splenic cells / T cells of wild-type mice) were “production of IFN-γ was not observed; also recorded: cannot enhance IL-18-responsive production of IFNγ; also recorded: could not be enhanced” and “production of IFN-γ was induced; also recorded: high level of IFN-γ production in response to IL-18 was observed”, respectively. Moreover, in [9], the “increase in AP-1 activity” value is recorded as 3- to 4 fold.

B1: IFN-γ: IFN-γ (Genzyme), cytokine (protein, UniProt P01579 24-161, looked up)
Interferon gamma: QDPYVKEAENLKKYFNAGHSDVADNGTLFLGILKNWKEESDRKIMQSQIVSFYFKLFKNFKDDQSIQKSVETIKEDMNVKFFNSNKKKRDDFEKLTNYSVTDLNVQRKAIHELIQVMAELSPAAKTGKRKRSQMLFRG
With B1, the “expression of I-A^b molecule in peritoneal macrophages” value in test [10] is “comparative among wild-type, MyD88- and TLR4-deficient mice”.

B2: IL-4: IL-4 (Genzyme), cytokine (protein, UniProt P05112 25-153, looked up)
Interleukin-4: HKCDITLQEIIKTLNSLTEQKTLCTELTVTDIFAASKNTTEKETFCRAATVLRQFYSHHEKDTRCLGATAQQFHRHKQLIRFLKRLDRNLWGLAGLNSCPVKEANQSTLENFLERLKTIMREKYSKCSS
Regarding B2, the results for the “expression of I-A^b molecule” value in test [11] (splenic B cells of MyD88-deficient mice), in test [11] (splenic B cells of TLR2 knockout mice) and in test [11] (splenic B cells of TLR4-deficient mice) were “showed same reaction as those of wild-type mice”, “normal expression of I-A^b molecule” and “showed same reaction as those of wild-type mice; also recorded: normal expression of I-A^b molecule”, respectively.
